Test results from US20250388565A1, “ESTROGEN RECEPTOR ALPHA DEGRADERS AND METHODS OF USE THEREOF” (Relay Therapeutics, Inc., priority 2022, published 2025).

Target: T1, ERα protein (HiBiT-tagged) in ESR1_HiBiT KI MCF7 cells (Homo sapiens, UniProt P03372)
T1 sequence (P03372 1-595): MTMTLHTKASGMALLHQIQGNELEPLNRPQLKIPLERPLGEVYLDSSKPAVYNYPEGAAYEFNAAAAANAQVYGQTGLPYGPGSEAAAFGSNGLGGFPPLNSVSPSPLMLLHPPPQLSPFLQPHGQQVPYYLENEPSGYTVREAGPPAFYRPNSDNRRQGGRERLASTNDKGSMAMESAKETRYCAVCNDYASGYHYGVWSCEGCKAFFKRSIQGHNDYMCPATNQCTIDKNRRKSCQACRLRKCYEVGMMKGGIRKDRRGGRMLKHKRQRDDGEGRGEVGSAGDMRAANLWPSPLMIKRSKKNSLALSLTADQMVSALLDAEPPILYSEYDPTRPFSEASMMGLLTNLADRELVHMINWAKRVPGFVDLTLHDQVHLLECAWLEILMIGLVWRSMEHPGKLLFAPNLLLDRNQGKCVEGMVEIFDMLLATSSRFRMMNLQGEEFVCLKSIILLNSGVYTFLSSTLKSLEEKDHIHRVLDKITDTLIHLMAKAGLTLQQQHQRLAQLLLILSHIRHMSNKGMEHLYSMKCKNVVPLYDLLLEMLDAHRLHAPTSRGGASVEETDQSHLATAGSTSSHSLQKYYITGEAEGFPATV
Assay: Nano Glo HiBiT Lytic Degradation Assay
Format: cell-based
Details: 6 hours with compound, 14-point dose response 1:3, bell-shape curve fit, half-maximal effect of first Hill model, read-out: MCF7 ESR1 HiBiT - (DC50)
Summary of the method: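 ESR1_HiBiT knock-in MCF7 cells were seeded 24 h before treatment, then exposed to compounds for 6 h at 37° C (14-point 1:3 curves, 10 mM top stock, 0.1% DMSO final, duplicates). HiBiT-ERα was read by lytic LgBiT luminescence, background-subtracted and normalized to DMSO. DC50 was taken from the half-maximal point of the first Hill component of a bell-shaped fit.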

`O=C1CC[C@H](N2Cc3cc(N4CCN(CC5CCN(c6ccc([C@@H]7c8ccc(C(F)(F)F)cc8CC[C@@H]7c7ccccc7)cc6)CC5)CC4)ccc3C2=O)C(=O)N1` [Compound I-46, (S)-3-(1-oxo-5-(4-((1-(4-((1R,2S)-2-phenyl-6-(trifluoromethyl)-1,2,3,4-tetrahydronaphthalen-1-yl)phenyl)piperidin-4-yl)methyl)piperazin-1-yl)isoindolin-2-yl)piperidine-2,6-dione] and `Cc1ccc2c(c1)CC[C@H](c1ccccc1)[C@@H]2c1ccc(N2CCC(CN3CCN(c4ccc5c(c4)CN([C@H]4CCC(=O)NC4=O)C5=O)CC3)CC2)cc1` [Compound I-50, (S)-3-(5-(4-((1-(4-((1R,2S)-6-methyl-2-phenyl-1,2,3,4-tetrahydronaphthalen-1-yl)phenyl)piperidin-4-yl)methyl)piperazin-1-yl)-1-oxoisoindolin-2-yl)piperidine-2,6-dione] cannot be ordered by DC50: no less than 10000 nM for the first, no less than 10000 nM for the second.

First: O=C1CC[C@H](N2Cc3cc(N4CCN(CC5CCN(c6ccc([C@@H]7c8ccccc8CC[C@@H]7c7ccccc7)cc6)CC5)CC4)ccc3C2=O)C(=O)N1 [Compound I-47, (S)-3-(1-oxo-5-(4-((1-(4-((1R,2S)-2-phenyl-1,2,3,4-tetrahydronaphthalen-1-yl)phenyl)piperidin-4-yl)methyl)piperazin-1-yl)isoindolin-2-yl)piperidine-2,6-dione]
Second: N#Cc1ccc2c(c1)CC[C@H](c1ccccc1)[C@@H]2c1ccc(N2CCC(CN3CCN(c4ccc5c(c4)CN([C@H]4CCC(=O)NC4=O)C5=O)CC3)CC2)cc1 [Compound I-49, (5R,6S)-5-(4-(4-((4-(2-((S)-2,6-dioxopiperidin-3-yl)-1-oxoisoindolin-5-yl)piperazin-1-yl)methyl)piperidin-1-yl)phenyl)-6-phenyl-5,6,7,8-tetrahydronaphthalene-2-carbonitrile]
The DC50 of the first is lower: 79 nM for the first, no less than 10000 nM for the second.

Compared with `O=C1CC[C@H](N2Cc3cc(N4CCN(CC5CCN(c6ccc([C@@H]7c8ccc(O)cc8C(F)(F)C[C@@H]7c7ccccc7)cc6)CC5)CC4)ccc3C2=O)C(=O)N1` [Compound I-51, (S)-3-(5-(4-((1-(4-((1R,2S)-4,4-difluoro-6-hydroxy-2-phenyl-1,2,3,4-tetrahydronaphthalen-1-yl)phenyl)piperidin-4-yl)methyl)piperazin-1-yl)-1-oxoisoindolin-2-yl)piperidine-2,6-dione], `O=C1CC[C@H](N2Cc3cc(N4CCN(CC5CCN(c6ccc([C@H]7c8ccc(O)cc8CC[C@H]7c7ccccn7)cc6)CC5)CC4)ccc3C2=O)C(=O)N1` [Compound I-114, (3S)-3-[5-[4-[[1-[4-[(1S,2R)-6-hydroxy-2-(2-pyridyl)tetralin-1-yl]phenyl]-4-piperidyl]methyl]piperazin-1-yl]-1-oxo-isoindolin-2-yl]piperidine-2,6-dione] is higher in DC50: 0.45 nM for the first, no less than 10000 nM for the second.

`O=C1CC[C@H](N2Cc3cc(N4CCN(CC5CCN(c6ccc([C@@H]7c8ccc(O)cc8CO[C@@]78CCCc7ccccc78)cc6)CC5)CC4)ccc3C2=O)C(=O)N1` [Compound I-76, (S)-3-(5-(4-((1-(4-((3S,4R)-7-hydroxy-3′,4′-dihydro-2′H-spiro[isochromane-3,1′-naphthalen]-4-yl)phenyl)piperidin-4-yl)methyl)piperazin-1-yl)-1-oxoisoindolin-2-yl)piperidine-2,6-dione] and `O=C1CC[C@H](N2Cc3cc(N4CCN(CC5CCN(c6ccc([C@@H]7c8ccc(O)cc8CO[C@@]78CCc7ccccc78)cc6)CC5)CC4)ccc3C2=O)C(=O)N1` [Compound I-77, (S)-3-(5-(4-((1-(4-((1S,4′R)-7′-hydroxy-2,3-dihydrospiro[indene-1,3′-isochroman]-4′-yl)phenyl)piperidin-4-yl)methyl)piperazin-1-yl)-1-oxoisoindolin-2-yl)piperidine-2,6-dione] are within 1.5-fold of each other in DC50: 0.21 nM for the first, 0.2 nM for the second.

Compared with `C[C@@H]1OC2(CCCCC2)[C@H](c2ccc(N3CCC(CN4CCN(c5ccc6c(c5)CN([C@H]5CCC(=O)NC5=O)C6=O)CC4)CC3)cc2)c2ccc(O)cc21` [Compound I-83, (S)-3-(5-(4-((1-(4-((1′S,4′R)-7′-hydroxy-1′-methylspiro[cyclohexane-1,3′-isochroman]-4′-yl)phenyl)piperidin-4-yl)methyl)piperazin-1-yl)-1-oxoisoindolin-2-yl)piperidine-2,6-dione], `O=C1CC[C@H](N2Cc3cc(N4CCN(CC5CCN(c6ccc([C@@H]7c8ccc(O)cc8CCC78CCCCC8)cc6)CC5)CC4)ccc3C2=O)C(=O)N1` [Compound I-85, (S)-3-(5-(4-((1-(4-((R)-6′-hydroxy-3′,4′-dihydro-1′H-spiro[cyclohexane-1,2′-naphthalen]-1′-yl)phenyl)piperidin-4-yl)methyl)piperazin-1-yl)-1-oxoisoindolin-2-yl)piperidine-2,6-dione] is 1.6-fold lower in DC50: 1 nM for the first, 0.64 nM for the second.

Going from `O=C1CC[C@H](N2Cc3cc(N4CCN(CC5CCN(c6ccc([C@H]7c8ccc(O)cc8C(F)(F)C[C@H]7C7CCCCC7)cc6)CC5)CC4)ccc3C2=O)C(=O)N1` [Compound I-98, (S)-3-(5-(4-((1-(4-((1S,2S)-2-cyclohexyl-4,4-difluoro-6-hydroxy-1,2,3,4-tetrahydronaphthalen-1-yl)phenyl)piperidin-4-yl)methyl)piperazin-1-yl)-1-oxoisoindolin-2-yl)piperidine-2,6-dione] to `O=C1CC[C@H](N2Cc3cc(N4CCN(CC5CCN(c6ccc([C@@H]7c8ccc(O)cc8C(F)(F)C[C@@H]7C7CCCCC7)cc6)CC5)CC4)ccc3C2=O)C(=O)N1` [Compound I-99, (S)-3-(5-(4-((1-(4-((1R,2R)-2-cyclohexyl-4,4-difluoro-6-hydroxy-1,2,3,4-tetrahydronaphthalen-1-yl)phenyl)piperidin-4-yl)methyl)piperazin-1-yl)-1-oxoisoindolin-2-yl)piperidine-2,6-dione], the DC50 falls from no less than 10000 nM to 0.67 nM.

Going from `O=C1CC[C@H](N2Cc3cc(N4CCN(CC5CCN(c6ccc([C@@H]7c8ccc(O)cc8CC[C@@H]7c7ccccn7)cc6)CC5)CC4)ccc3C2=O)C(=O)N1` [Compound I-115] to `O=C1CC[C@H](N2Cc3cc(N4CCN(CC5CCN(c6ccc([C@H]7c8ccc(O)cc8CC[C@H]7CC7CCCC7)cc6)CC5)CC4)ccc3C2=O)C(=O)N1` [Compound I-120, (S)-3-(5-(4-((1-(4-((1S,2S)-2-(cyclopentylmethyl)-6-hydroxy-1,2,3,4-tetrahydronaphthalen-1-yl)phenyl)piperidin-4-yl)methyl)piperazin-1-yl)-1-oxoisoindolin-2-yl)piperidine-2,6-dione], the DC50 rises from 0.63 nM to no less than 10000 nM.

`CC1(C)CC([C@H]2CCc3cc(O)ccc3[C@H]2c2ccc(N3CCC(CN4CCN(c5ccc6c(c5)CN([C@H]5CCC(=O)NC5=O)C6=O)CC4)CC3)cc2)CC(C)(C)C1` [Compound I-116, (3.5)-3-[5-[4-[[1-[4-[(1S,2S)-6-hydroxy-2-(3,3,5,5-tetramethylcyclohexyl)tetralin-1-yl]phenyl]-4-piperidyl]methyl]piperazin-1-yl]-1-oxo-isoindolin-2-yl]piperidine-2,6-dione] and `CC1(C)CC([C@@H]2CCc3cc(O)ccc3[C@@H]2c2ccc(N3CCC(CN4CCN(c5ccc6c(c5)CN([C@H]5CCC(=O)NC5=O)C6=O)CC4)CC3)cc2)CC(C)(C)C1` [Compound I-117, (35)-3-[5-[4-[[1-[4-[(1R,2R)-6-hydroxy-2-(3,3,5,5-tetramethylcyclohexyl)tetralin-1-yl]phenyl]-4-piperidyl]methyl]piperazin-1-yl]-1-oxo-isoindolin-2-yl]piperidine-2,6-dione] cannot be ordered by DC50: no less than 10000 nM for the first, no less than 10000 nM for the second.

Going from `O=C1CC[C@H](N2Cc3cc(N4CCN(CC5CCN(c6cc(F)c([C@H]7c8ccc(O)cc8CC[C@H]7C7CCCCC7)c(F)c6)CC5)CC4)ccc3C2=O)C(=O)N1` [Compound I-118, (S)-3-(5-(4-((1-(4-((1R,2S)-2-cyclohexyl-6-hydroxy-1,2,3,4-tetrahydronaphthalen-1-yl)-3,5-difluorophenyl)piperidin-4-yl)methyl)piperazin-1-yl)-1-oxoisoindolin-2-yl)piperidine-2,6-dione] to `O=C1CC[C@H](N2Cc3cc(N4CCN(CC5CCN(c6cc(F)c([C@@H]7c8ccc(O)cc8CC[C@@H]7C7CCCCC7)c(F)c6)CC5)CC4)ccc3C2=O)C(=O)N1` [Compound I-119, (S)-3-(5-(4-((1-(4-((1S,2R)-2-cyclohexyl-6-hydroxy-1,2,3,4-tetrahydronaphthalen-1-yl)-3,5-difluorophenyl)piperidin-4-yl)methyl)piperazin-1-yl)-1-oxoisoindolin-2-yl)piperidine-2,6-dione], the DC50 falls from 600 nM to 6 nM (100-fold).

For `O=C1CC[C@H](N2Cc3cc(N4CCN(CC5CCN(c6ccc([C@@H]7c8ccc(O)cc8CC[C@@H]7CC7CCCC7)cc6)CC5)CC4)ccc3C2=O)C(=O)N1` [Compound I-121, (S)-3-(5-(4-((1-(4-((1R,2R)-2-(cyclopentylmethyl)-6-hydroxy-1,2,3,4-tetrahydronaphthalen-1-yl)phenyl)piperidin-4-yl)methyl)piperazin-1-yl)-1-oxoisoindolin-2-yl)piperidine-2,6-dione], the DC50 was 3 nM.
